In assay [1] the test system is BALB/c 3T3-1000 fibroblasts. Briefly: Colony formation by BALB/c 3T3-1000 fibroblasts in the presence of vinblastine. Conditions: BALB/c 3T3-1000 cell line. It counts as cell-based, mouse. Here is the method: The effects of antibody preparations of the invention on drug cytotoxicity may be assessed by incubating suspensions of MDR and control cells with the antibody preparation, then testing for cell growth inhibition by colony formation, plating efficiency, and/or MTT growth inhibition assay^13,16 in the absence and presence of an anti-cancer drug such as one of the vinca alkaloids. BALB/c 3T3-1000 fibroblasts are particularly suitable for plating efficiency assays and the MDR cell line K562/inf for the growth inhibition assay. The effects of antibody preparations on drug cytotoxicity may be assayed by incubating cell suspensions with a purified antibody preparation, and plating cells in microtitre plate wells for colony or growth inhibition assays in the presence of the antibody preparation.
All drugs were obtained from Sigma, except for G418 (Gibco) and taxol (gift of Dr. S. B. Horwitz). Colony formation and MTT assays for cell growth inhibition were carried out by art-recognized procedures. […]
In the system described in FIG. 3B, we examined the effects of different mAb on colony formation by BALB/c 3T3-1000 fibroblasts in the presence of vinblastine. […] Colonies were fixed with methanol or ethanol and stained with crystal violet on day 11, and scored for plating efficiency.

For the next assay, the system named is BALB/c 3T3-1000 cells. Briefly: Cell growth inhibition of BALB/c 3T3-1000 cells by vinblastine with mAb or verapamil. Format: cell-based, mouse. The conditions noted are these: 350 ng/ml vinblastine.

This note sets out measurements from patent publication US7598340B2, “Monoclonal antibody to a human MDR1 multidrug resistance gene product, and uses” (The Board of Trustees of the University of Illinois, priority 1992, dated 2009).

For `CC[C@]1(O)C[C@@H]2CN(CCc3c([nH]c4ccccc34)[C@@](C(=O)OC)(c3cc4c(cc3OC)N(C)[C@H]3[C@@](O)(C(=O)OC)[C@H](OC(C)=O)[C@]5(CC)C=CCN6CC[C@]43[C@@H]65)C2)C1` [vinblastine], in assay [1], the ID90 of vinblastine worked out at 0.35 µg/mL.

`COc1ccc(CCN(C)CCCC(C#N)(c2ccc(OC)c(OC)c2)C(C)C)cc1OC` (centres unmarked) [Verapamil, verapamil]: the “concentration achieving the same potentiation of vinblastine toxicity” value in the assay with BALB/c 3T3-1000 cells worked out at 3 µM.
